{"source": "patent US10471025B2", "about": "“Compositions for use in treating parkinson's disease and related disorders” (Technophage, Investigação E Desenvolvimento Em …, priority 2015, dated 2019)", "key": {"[1]": {"system": "6-OHDA treated zebrafish larvae", "assay": "LD50 / lethality in the disease context of the zebrafish model"}, "[2]": {"settings": "storage below 25 éC; cited from earlier work"}, "[3]": {"system": "6-OHDA treated zebrafish larvae", "assay": "Locomotor behavior rescue (total distance moved, number of jumps) in 6-OHDA zebrafish PD model", "assay_type": "in vivo", "excerpt": "To model Parkinson ̆s disease (PD), a neurotoxin 6-OHDA (6-hyroxydopamine) based method was used in zebrafish and in mice. In this model, 6-OHDA-lesions induce motor manifestations in zebrafish and in mice, such as reduced locomotor ability, and the loss of dopaminergic neurons. Based on the 6-OHDA PD zebrafish model, compounds from a small molecules library were screened for rescue of the parkinsonian phenotype (Example 1, see below).\nThe screen was based on both the recovery of impaired locomotor behavior and dopaminergic neuronal loss.\nValues were normalized for the mean of disease state in each experiment (disease=1). Each plot contains data from 3 independent experiments with a total of 24 larvae. As a control, zebrafish were treated with only the vehicle, ascorbic acid.\nFor these experiments, Tubingen (TU) wild-type zebrafish, a specific strain of wild-type zebrafish, were used."}, "[4]": {"settings": "IV, rats; cited from earlier work"}, "[5]": {"settings": "cited from earlier work; for Bioavailability: 86 mg"}, "[6]": {"settings": "cited from earlier work"}, "healthy wild type mice": {"system": "healthy wild type mice", "assay": "Toxicity assay, welfare and necropsy (Example 6)", "settings": "24 h", "method": "Their behavior was evaluated with open field tests for 1 h after i.p. injection. After 24 h, animals were sacrificed and necropsy was performed\n9 week old NMRI female mice were used for this assay. Animals were tested for their welfare after two intraperitoneal injections of the test agents using the open field test. Necropsy was done after cervical dislocation. […] Benserazide at 12 mg/kg was administered 30 minutes prior to administration of these compounds, in all groups. Saline was given to the control group.\nAfter benserazide administration, animals were monitored in the open field for 30 minutes for habituation. […] 24 hours after administration of the compounds, the animals were sacrificed and necropsy performed.\nFor administration of the various agents to the animals, two 700 ? L injections were administered 30 minutes apart."}, "rabbit": {"system": "rabbit", "settings": "oral administration; cited from earlier work"}, "[7]": {"system": "6-OHDA treated zebrafish larvae", "assay": "Rescue of Tyrosine hydroxylase (TH)-positive dopaminergic neurons in 6-OHDA zebrafish larvae", "assay_type": "in vivo", "method": "The 7 candidates also were tested in terms of rescue of dopaminergic neurons positive for Tyrosine hydroxylase (Th) in the substancia nigra pars compacta of the test animals. […] Results were normalized for healthy control values (healthy control=100% of neurons). As a control, zebrafish were treated with only the vehicle, ascorbic acid. ‘6-OHDA_ represents results in zebrafish receiving no treatment.\nFIGS. 6E-6G show representative Z-projections of confocal stacks of whole-mount anti-TH immunohistochemistry in 6 days post-fertilization (dpf) of zebrafish larvae (age of the fish) control (FIG. 6E), 6-OHDA (FIG. 6F), and tapentadol treated-larvae (FIG. 6G)."}, "[8]": {"settings": "cited from earlier work", "remark": "listed apart in the source"}, "[9]": {"settings": "after a high-fat, high-calorie breakfast"}}, "note": "Several values for one entry are separate records, joined by “and”; a condition that tells them apart may be missing. Equal entries are not always repeated. Entries after “also recorded” stand apart in the source; their conditions may differ. Structures can show the parent of a compound that is named as a salt. Where two headings read alike, the source gives them in different places.", "data": [{"molecule": "CC[C@@H](c1cccc(O)c1)[C@@H](C)CN(C)C", "note": "[tapentadol, tapentadol hydrochloride]", "values": [{"measurement": "LD50", "setting": "[1]; 6-OHDA disease-induced zebrafish larvae", "value": "8079 | M"}, {"measurement": "LD50", "setting": "[1]; 6-OHDA zebrafish larvae", "value": "8,079 μM"}, {"measurement": "Re-test period", "setting": "[2]", "value": 30, "unit": "months"}, {"measurement": "Therapeutic window", "setting": "[3]; 6-OHDA zebrafish larvae", "value": "20 to 113", "unit": "µM"}, {"measurement": "Locomotor behavior rescue (total distance moved, number of jumps), confirmation of screen", "setting": "[3]; 7 candidate molecules, 3 independent experiments", "value": "strong candidates"}, {"measurement": "Optimal concentration", "setting": "[3]; behavioral experiments and TH+ cell counts", "value": 48.5, "unit": "µM"}, {"measurement": "Total distance travelled, difference between treated larvae and disease control", "setting": "[3]; tapentadol 48.5, stavudine 50, nabumetone 0.456 and 0.91 μM, n=8 fish", "value": "~200", "unit": "mm"}, {"measurement": "Number of jumps: concentration validated as recovering the 6-OHDA induced behavior", "setting": "[3]; zebrafish, in vivo", "value": 56.25, "unit": "µM"}, {"measurement": "Dose with suspected proconvulsion effect", "setting": "[4]", "value": 6, "unit": "mg/kg"}, {"measurement": "Conjugated form among related compounds excreted in the urine", "setting": "[5]; 100 mg radiolabelled oral dose", "value": 69, "unit": "%"}, {"measurement": "Drug recovered in 5 days", "setting": "[5]; 100 mg radiolabelled oral dose", "value": 99.9, "unit": "%"}, {"measurement": "Excreted via urine", "setting": "[5]; 100 mg radiolabelled oral dose", "value": 99, "unit": "%"}, {"measurement": "Exposure to the conjugates, of the total", "setting": "[5]; 100 mg radiolabelled oral dose", "value": "approximately 64%"}, {"measurement": "Other forms of metabolites among related compounds excreted in the urine", "setting": "[5]; 100 mg radiolabelled oral dose", "value": 27, "unit": "%"}, {"measurement": "Parent drug among related compounds excreted in the urine", "setting": "[5]; 100 mg radiolabelled oral dose", "value": 3, "unit": "%"}, {"measurement": "Total dose excreted within 24 hours", "setting": "[5]; 100 mg radiolabelled oral dose", "value": 95, "unit": "%"}, {"measurement": "Total drug excreted in the feces", "setting": "[5]; 100 mg radiolabelled oral dose", "value": "Approximately 1%"}, {"measurement": "Cmax", "setting": "[5]; ER", "value": 22.5, "unit": "ng/mL"}, {"measurement": "Cmax", "setting": "[5]; IR", "value": 64.2, "unit": "ng/mL"}, {"measurement": "Tmax", "setting": "[5]; IR", "value": 1.5, "unit": "h"}, {"measurement": "Increase of AUC with food", "setting": "[5]; [9]", "value": 25, "unit": "%"}, {"measurement": "Increase of Cmax with food", "setting": "[5]; [9]", "value": 16, "unit": "%"}, {"measurement": "Elimination half-life", "setting": "[5]; after oral administration", "value": 4, "unit": "h"}, {"measurement": "Metabolized to N-desmethyl tapentadol", "setting": "[5]; by CY P2C9 and CY P2C19", "value": 13, "unit": "%"}, {"measurement": "Metabolized to hydroxy tapentadol", "setting": "[5]; by CY P2D6", "value": 2, "unit": "%"}, {"measurement": "Bioavailability", "setting": "[5]; extended release (ER)", "value": 32, "unit": "%"}, {"measurement": "Lower mean Cmax in elderly vs young adult subjects", "setting": "[5]; geriatric patients", "value": 16, "unit": "%"}, {"measurement": "Parent compound metabolized", "setting": "[5]; humans", "value": "about 97%"}, {"measurement": "Bioavailability", "setting": "[5]; immediate release (IR)", "value": 32, "unit": "%"}, {"measurement": "Drug excreted in urine as unchanged drug", "setting": "[5]; in vivo", "value": 3, "unit": "%"}, {"measurement": "Excretion via the kidneys (tapentadol and its metabolites)", "setting": "[5]; in vivo", "value": 99, "unit": "%"}, {"measurement": "Total clearance", "setting": "[5]; in vivo", "value": "1530 ± 177", "unit": "mL/min"}, {"measurement": "Volume of distribution (Vz)", "setting": "[5]; intravenous administration, hydrochloride", "value": "540 ± 98", "unit": "L"}, {"measurement": "AUC ratio vs normal hepatic function", "setting": "[5]; mild hepatic impairment (Child-Pugh Score 5 to 6)", "value": 1.7}, {"measurement": "Cmax ratio vs normal hepatic function", "setting": "[5]; mild hepatic impairment", "value": 1.4}, {"measurement": "t1/2 ratio vs normal hepatic function", "setting": "[5]; mild hepatic impairment", "value": 1.2}, {"measurement": "AUC ratio vs normal hepatic function", "setting": "[5]; moderate hepatic impairment (Child-Pugh Score 7 to 9)", "value": 4.2}, {"measurement": "Cmax ratio vs normal hepatic function", "setting": "[5]; moderate hepatic impairment", "value": 2.5}, {"measurement": "t1/2 ratio vs normal hepatic function", "setting": "[5]; moderate hepatic impairment", "value": 1.4}, {"measurement": "Mean accumulation factor", "setting": "[5]; multiple (every 6 hour) dose study, 75 to 175 mg tapentadol", "value": 1.6}, {"measurement": "Time of maximum serum concentrations after dosing", "setting": "[5]; oral", "value": "around 1.25 hours"}, {"measurement": "Mean absolute bioavailability", "setting": "[5]; single-dose administration (fasting)", "value": "approximately 32%"}, {"measurement": "Dose excreted as O-glucuronide", "setting": "[5]; urine", "value": 55, "unit": "%"}, {"measurement": "Dose excreted as sulfate of tapentadol", "setting": "[5]; urine", "value": 15, "unit": "%"}, {"measurement": "Dose with exaggerated pharmacological effects", "setting": "[6]; 52-week dog study, oral dosing", "value": 30, "unit": "mg/kg"}, {"measurement": "Dose groups with QT prolongation", "setting": "[6]; dogs, hydrochloride", "value": "80 mg/kg and 120 mg/kg"}, {"measurement": "Necropsy findings", "setting": "healthy wild type mice; tapentadol C1 8.3 mg/kg in combination with L-Dopa", "value": "Two of the three animals treated with tapentadol C1 concentration had a slight hyperemia in the small intestine"}, {"measurement": "Necropsy findings", "setting": "healthy wild type mice; tapentadol C3 15 mg/kg in combination with L-Dopa", "value": "One of the three animals treated with tapentadol C3 concentration had an intestinal congestion"}, {"measurement": "LD50", "setting": "rabbit", "value": "3,200 mg/kg"}, {"measurement": "Neurorescue", "setting": "[7]; TH+ neurons at optimal dose, p", "value": "Confirmed p < 0.055"}, {"measurement": "Neuroprotective effect / recovery of TH+ neurons", "setting": "[7]; at the optimal concentration of each molecule, hydrochloride", "value": "confirmed; also recorded: recovery was observed"}, {"measurement": "Plasma protein binding", "setting": "[8]; all species tested including humans", "value": "15-20%"}, {"measurement": "Plasma protein binding", "setting": "[8]; plasma", "value": "approximately 20%"}]}]}
